From US20070179121A1, “Method of treating pediatric patients with corticosteroids” (priority 2006, published 2007)

System: HPA-axis
Experiment: HPA-axis suppression: serum cortisol before and 30 minutes after intravenous cosyntropin stimulation, pediatric atopic dermatitis patients
Assay type: in vivo, human (pediatric patients)
Conditions: for Not suppressed: percent in brackets
Procedure: At the baseline visit, physical examinations were performed, including measurements of height, weight, and vital signs, and female subjects of childbearing potential underwent a urine pregnancy test (UPT). Patients with any significant disease of the hepatic, renal, endocrine, musculoskeletal, or nervous system were excluded. At Screening/Baseline, each qualified patient was assessed for a normally functioning HPA axis. Male or female patients with clinically diagnosed atopic dermatitis, involving ≧20% of the total body surface area (BSA), were randomized to receive either qd (once a day) or bid (twice a day) treatment in 4 sequential cohorts. The “rule of nines” method was used in calculating affected BSA.
Enrollment in the 4 cohorts was as follows: Cohort 1-33 patients, 12 to <18 years of age; Cohort 2-32 patients, 6 to <12 years of age; Cohort 3-30 patients, 2 to […] Cohort 4-31 infants, 3 months to <2 years of age.
Enrollment into each cohort began only after evaluation of the preceding cohort in order to minimize the risk of systemic toxicity to the study subjects. Four observations of HPA-axis suppression in a single treatment group per cohort were considered as evidence of a clinically significant risk.
Patients who met the inclusion/exclusion criteria were randomized to receive topical fluocinonide either qd or bid. Patients/guardians were instructed to apply a thin layer of the study product to all treatable areas once or twice daily for 14 days. If the areas to be treated were hairy, patients/guardians were instructed to part the hair to allow direct contact between the study product and the lesion. Patients/guardians were also instructed not to apply study product to lesions of the face, groin, perianal area, and axillae. At the end of Weeks 1, 2, and 4, patients returned to the study site in order for the investigator to perform designated evaluations, review treatment compliance and concomitant therapy, and to collect information regarding adverse events.
The potential of fluocinonide to suppress the HPA-axis was assessed by determining the rate of incidence of suppression, when suppression was defined as a serum cortisol level ≦18 μg/dL, 30 minutes after intravenous cosyntropin stimulation. For a subject to be evaluable for HPA-axis suppression, the subject must have received at least 2 full weeks of fluocinonide treatment prior to the cosyntropin challenge. Pre-and post-cosyntropin-stimulation blood samples were obtained between 7:30 and 8:30 AM to account for diurnal variation in cortisol levels, at the Baseline and Week 2 visits, as directed in the Cortrosyn® package insert. Cortrosyn® is a drug that stimulates the adrenal gland. […] The dose and administration of cosyntropin followed the labeling of the product. Specifically, the dose for subjects 3 to 17 years of age was 0.25 mg, and the dose for subjects 3 months to 2 years old was 0.125 mg. At the end of the 14-day treatment period, any subject with a post-stimulation cortisol level ≦18 μg/dL was re-tested at Week 4 and once every 4 weeks thereafter until the post-stimulation levels were within normal limits.
Mean post-stimulation cortisol levels measured at Baseline and at Week 2 were compared using a paired t test.

[1] = End of Week 2, Cohort 1 (12-<18 years), bid
[2] = End of Week 2, Cohort 1 (12-<18 years), qd
[3] = End of Week 2, Cohort 2 (6-<12 years), bid
[4] = End of Week 2, Cohort 2 (6-<12 years), qd
[5] = End of Week 2, Cohort 3 (2-<6 years), bid
[6] = End of Week 2, Cohort 3 (2-<6 years), qd
[7] = End of Week 2, Cohort 4 (3 months to <2 year), bid
[8] = End of Week 2, Cohort 4 (3 months to <2 year), qd
[9] = Screening, Cohort 1 (12-<18 years), bid
[10] = Screening, Cohort 1 (12-<18 years), qd
[11] = Screening, Cohort 2 (6-<12 years), bid
[12] = Screening, Cohort 2 (6-<12 years), qd
[13] = Screening, Cohort 3 (2-<6 years), bid
[14] = Screening, Cohort 3 (2-<6 years), qd
[15] = Screening, Cohort 4 (3 months to <2 year), bid
[16] = Screening, Cohort 4 (3 months to <2 year), qd
[17] = patient of Cohort 3 bid, Week 2 (samples suspected reversed)

For `CC(=O)OCC(=O)[C@@]12OC(C)(C)O[C@@H]1C[C@H]1[C@@H]3C[C@H](F)C4=CC(=O)C=C[C@]4(C)[C@@]3(F)[C@@H](O)C[C@@]12C` [Fluocinonide, pregna-1,4-diene-3,20-dione,21-(acetyloxy)-6,9-difluoro-11-hydroxy-16, 17-[(1-methylethylidene)bis(oxy)]-,(6α., 11β,16α)-], the “Patients who met the criterion for HPA-axis suppression” value (“Patients who met the criterion” for short) (Cohort 1, bid, 1 of 15) was 6.7%, the “Patients who met the criterion” value (Cohort 2, bid, 2 of 16) was 12.5% and the “Patients who met the criterion” value (Cohort 3, bid, Week 2, 1 of 15, samples suspected reversed, not counted as suppression) was 6.7%. For the same molecule, the “Subjects who experienced HPA-axis suppression” value (Cohort 4) was “None”, the “Cortisol increase in levels, Mean ± SD” value [1] was 8.6 ± 4.7 µg/dL and the “Cortisol increase in levels, Range” value [1] was 1.2 to 17.0 µg/dL. For the same molecule, the “Cortisol pre-stimulation level, Mean ± SD” value [1] was 17.2 ± 8.3 µg/dL, the “Cortisol pre-stimulation level, Range” value [1] was 7.1 to 34.2 µg/dL and the Not suppressed [1] was 14 (93.3) N. For the same molecule, the “Cortisol increase in levels, Mean ± SD” value [2] was 9.3 ± 5.1 µg/dL, the “Cortisol increase in levels, Range” value [2] was 3.5 to 22.2 µg/dL and the “Cortisol pre-stimulation level, Mean ± SD” value [2] was 17.6 ± 7.6 µg/dL. For the same molecule, the “Cortisol pre-stimulation level, Range” value [2] was 1.2 to 32.9 µg/dL, the Not suppressed [2] was 15 (100) N and the “Cortisol increase in levels, Mean ± SD” value [3] was 11.5 ± 5.2 µg/dL. For the same molecule, the “Cortisol increase in levels, Range” value [3] was -3.5 to 20.3 µg/dL, the “Cortisol pre-stimulation level, Mean ± SD” value [3] was 12.3 ± 4.9 µg/dL and the Not suppressed [3] was 14 (87.5) N. The “Cortisol increase in levels, Mean ± SD” value [4] was 11.0 ± 4.8 µg/dL, the “Cortisol increase in levels, Range” value [4] was -2.3 to 17.8 µg/dL and the “Cortisol pre-stimulation level, Mean ± SD” value [4] was 13.7 ± 5.6 µg/dL. The “Cortisol pre-stimulation level, Range” value [4] was 6.9 to 29.3 µg/dL, the “Cortisol post-stimulation level, Mean ± SD” value (End of Week 2, Cohort 2 (6-<12 years), qd, P = 0.015 vs screening) was 24.7 ± 3.0 µg/dL and the “Cortisol post-stimulation level, Mean ± SD” value (End of Week 2, Cohort 2 (6-<12 years), qd, P = 0.015 vs screening, listed as fluocinonide) was 24.7 µg/dL. For the same molecule, the Not suppressed [4] was 15 (100) N, the “Cortisol increase in levels, Mean ± SD” value [5] was 11.0 ± 10.4 µg/dL and the “Cortisol increase in levels, Range” value [5] was -19 to 29.1 µg/dL. For the same molecule, the “Cortisol pre-stimulation level, Mean ± SD” value [5] was 15.0 ± 5.9 µg/dL, the Not suppressed [5] was 15 (100) N and the “Cortisol increase in levels, Mean ± SD” value [6] was 12.7 ± 4.9 µg/dL. For the same molecule, the “Cortisol increase in levels, Range” value [6] was 3.1 to 22.0 µg/dL, the “Cortisol pre-stimulation level, Mean ± SD” value [6] was 15.4 ± 7.0 µg/dL and the Not suppressed [6] was 15 (100) N. The “Cortisol increase in levels, Mean ± SD” value [7] was 16.5 ± 6.6 µg/dL, the “Cortisol increase in levels, Range” value [7] was 7.0 to 29.7 µg/dL and the “Cortisol pre-stimulation level, Mean ± SD” value [7] was 13.0 ± 4.6 µg/dL. For the same molecule, the Not suppressed [7] was 15 (100) N, the “Cortisol increase in levels, Mean ± SD” value [8] was 19.9 ± 7.1 µg/dL and the “Cortisol increase in levels, Range” value [8] was 6.4 to 29.9 µg/dL. For the same molecule, the “Cortisol pre-stimulation level, Mean ± SD” value [8] was 10.4 ± 3.2 µg/dL, the Not suppressed [8] was 15 (100) N and the “Cortisol increase in levels, Mean ± SD” value [9] was 11.1 ± 3.7 µg/dL. For the same molecule, the “Cortisol increase in levels, Range” value [9] was 4.3 to 17.4 µg/dL, the “Cortisol post-stimulation level, Mean ± SD” value [9] was 26.8 ± 8.0 µg/dL and the “Cortisol post-stimulation level, Range” value [9] was 18.3 to 50.4 µg/dL. The “Cortisol pre-stimulation level, Mean ± SD” value [9] was 15.7 ± 10.3 µg/dL, the “Cortisol pre-stimulation level, Range” value [9] was 0.9 to 42.7 µg/dL and the “Cortisol increase in levels, Mean ± SD” value [10] was 9.3 ± 5.2 µg/dL. For the same molecule, the “Cortisol increase in levels, Range” value [10] was -1.2 to 22.1 µg/dL, the “Cortisol post-stimulation level, Mean ± SD” value [10] was 26.4 ± 3.7 µg/dL and the “Cortisol post-stimulation level, Range” value [10] was 18.2 to 31.3 µg/dL. For the same molecule, the “Cortisol pre-stimulation level, Mean ± SD” value [10] was 17.2 ± 6.6 µg/dL, the “Cortisol pre-stimulation level, Range” value [10] was 2.0 to 26.1 µg/dL and the “Cortisol increase in levels, Mean ± SD” value [11] was 12.3 ± 3.7 µg/dL. For the same molecule, the “Cortisol increase in levels, Range” value [11] was 3.8 to 17.8 µg/dL, the “Cortisol post-stimulation level, Mean ± SD” value [11] was 24.9 ± 3.9 µg/dL and the “Cortisol post-stimulation level, Range” value [11] was 19.4 to 32.1 µg/dL. For the same molecule, the “Cortisol pre-stimulation level, Mean ± SD” value [11] was 12.5 ± 4.5 µg/dL, the “Cortisol pre-stimulation level, Range” value [11] was 6.4 ± 22.2 µg/dL and the “Cortisol increase in levels, Mean ± SD” value [12] was 14.0 ± 6.1 µg/dL. For the same molecule, the “Cortisol increase in levels, Range” value [12] was 3.0 to 22.6 µg/dL, the “Cortisol post-stimulation level, Mean ± SD” value [12] was 28.0 ± 4.3 µg/dL and the “Cortisol post-stimulation level, Range” value [12] was 20.9 to 36.2 µg/dL. The “Cortisol pre-stimulation level, Mean ± SD” value [12] was 14.0 ± 5.0 µg/dL, the “Cortisol pre-stimulation level, Range” value [12] was 6.6 to 25.1 µg/dL and the “Cortisol post-stimulation level, Mean ± SD” value (Screening, Cohort 2 (6-<12 years), qd, listed as fluocinonide) was 28.0 µg/dL. The “Cortisol increase in levels, Mean ± SD” value [13] was 15.6 ± 7.0 µg/dL, the “Cortisol increase in levels, Range” value [13] was 1.8 to 30.0 µg/dL and the “Cortisol post-stimulation level, Mean ± SD” value [13] was 29.9 ± 6.1 µg/dL. The “Cortisol post-stimulation level, Range” value [13] was 20.1 to 40.0 µg/dL, the “Cortisol pre-stimulation level, Mean ± SD” value [13] was 14.4 ± 5.6 µg/dL and the “Cortisol pre-stimulation level, Range” value [13] was 6.1 to 23.4 µg/dL. The “Cortisol increase in levels, Mean ± SD” value [14] was 17.4 ± 3.1 µg/dL, the “Cortisol increase in levels, Range” value [14] was 11.2 to 23.0 µg/dL and the “Cortisol post-stimulation level, Mean ± SD” value [14] was 29.0 ± 3.8 µg/dL. The “Cortisol post-stimulation level, Range” value [14] was 22.8 to 37.0 µg/dL, the “Cortisol pre-stimulation level, Mean ± SD” value [14] was 11.6 ± 3.6 µg/dL and the “Cortisol pre-stimulation level, Range” value [14] was 7.3 to 19.8 µg/dL. For the same molecule, the “Cortisol increase in levels, Mean ± SD” value [15] was 17.9 ± 4.7 µg/dL, the “Cortisol increase in levels, Range” value [15] was 11.4 to 25.0 µg/dL and the “Cortisol post-stimulation level, Mean ± SD” value [15] was 29.2 ± 6.1 µg/dL. The “Cortisol post-stimulation level, Range” value [15] was 20.5 to 38.8 µg/dL, the “Cortisol pre-stimulation level, Mean ± SD” value [15] was 11.3 ± 4.9 µg/dL and the “Cortisol pre-stimulation level, Range” value [15] was 6.0 to 20.8 µg/dL. For the same molecule, the “Cortisol increase in levels, Mean ± SD” value [16] was 16.5 ± 4.7 µg/dL, the “Cortisol increase in levels, Range” value [16] was 6.1 to 23.0 µg/dL and the “Cortisol post-stimulation level, Mean ± SD” value [16] was 28.3 ± 5.1 µg/dL. The “Cortisol post-stimulation level, Range” value [16] was 20.7 to 36.2 µg/dL, the “Cortisol pre-stimulation level, Mean ± SD” value [16] was 11.8 ± 4.3 µg/dL and the “Cortisol pre-stimulation level, Range” value [16] was 4.7 to 19.6 µg/dL. For the same molecule, the “Suppression of the HPA-axis” value (administered once daily, patients 3 months to <18 years of age) was “does not result in suppression of the HPA-axis”, the HPA-axis suppression (administered topically once or twice daily, pediatric patients with atopic dermatitis) was “does not result in any significant level of HPA-axis suppression” and the “Suppression of the HPA-axis” value (administered twice daily) was “low incidence of suppression of the HPA-axis”. For the same molecule, the “Post-stimulation serum cortisol level, single patient” value (“Post-stimulation serum cortisol level” for short) (first suppressed patient of Cohort 2 bid, Screening) was 32.1 µg/dL, the “Post-stimulation serum cortisol level” value (first suppressed patient of Cohort 2 bid, Week 2) was 17.2 µg/dL and the “Post-stimulation serum cortisol level” value (first suppressed patient of Cohort 2 bid, Week 4 (2 weeks post-treatment)) was 28.7 µg/dL. The “Post-stimulation serum cortisol level” value (patient of Cohort 3 bid, Screening) was 40.0 µg/dL, the “Post-stimulation serum cortisol level” value [17] was 9.1 µg/dL and the “Pre-stimulation serum cortisol level, single patient” value [17] was 28.0 µg/dL. For the same molecule, the “Post-stimulation serum cortisol level” value (patient of Cohort 3 bid, Week 4) was 30.3 µg/dL, the “Post-stimulation serum cortisol level” value (second suppressed patient of Cohort 2 bid, 8 days after the end of treatment) was 22.4 µg/dL and the “Post-stimulation serum cortisol level” value (second suppressed patient of Cohort 2 bid, Screening) was 20.5 µg/dL. The “Post-stimulation serum cortisol level” value (second suppressed patient of Cohort 2 bid, Week 2) was 16.7 µg/dL, the “Post-stimulation serum cortisol level” value (suppressed patient of Cohort 1 bid, Week 2) was 17.6 µg/dL and the “Post-stimulation serum cortisol level” value (suppressed patient of Cohort 1 bid, Week 4 (2 weeks post-treatment)) was 18.9 µg/dL.
